# According to patent US9938259B2, “Therapeutic compositions and related methods of use” (Agios Pharmaceuticals, Inc., priority 2009, dated 2018):
# Biological target: PKM2 (Homo sapiens, UniProt P14618)
# Assay: PKM2 Assay
# Type: biochemical
# Conditions: activation of PKM2 enzyme, LDH-coupled, absorbance at 340 nm; read-out: PKM2_AC50
# Method: • PKM2 stock enzyme solution was diluted in Reaction Buffer • 2 μL of compound was added into each well first, and then 180 μL of the Reaction Mix was added. • Reaction mixture with compound (without ADP) were incubated for 30 minutes at 4° C. • Plates were re-equilibrated to room temperature prior to adding 20 μL ADP to initiate the reaction. • Reaction progress was measured as changes in absorbance at 340 nm wavelength at room temperature (25° C.) • Reaction Mix: PKM2 (50 ng/well), ADP (0.7 mM), PEP (0.15 mM), NADH (180 μM), LDH (2 units) in Reaction Buffer • Reaction Buffer: 100 mM KCl, 50 mM Tris pH 7.5, 5 mM MgCl2, 1 mM DTT, 0.03% BSA.
# Chain of PKM2 (P14618 whole entry): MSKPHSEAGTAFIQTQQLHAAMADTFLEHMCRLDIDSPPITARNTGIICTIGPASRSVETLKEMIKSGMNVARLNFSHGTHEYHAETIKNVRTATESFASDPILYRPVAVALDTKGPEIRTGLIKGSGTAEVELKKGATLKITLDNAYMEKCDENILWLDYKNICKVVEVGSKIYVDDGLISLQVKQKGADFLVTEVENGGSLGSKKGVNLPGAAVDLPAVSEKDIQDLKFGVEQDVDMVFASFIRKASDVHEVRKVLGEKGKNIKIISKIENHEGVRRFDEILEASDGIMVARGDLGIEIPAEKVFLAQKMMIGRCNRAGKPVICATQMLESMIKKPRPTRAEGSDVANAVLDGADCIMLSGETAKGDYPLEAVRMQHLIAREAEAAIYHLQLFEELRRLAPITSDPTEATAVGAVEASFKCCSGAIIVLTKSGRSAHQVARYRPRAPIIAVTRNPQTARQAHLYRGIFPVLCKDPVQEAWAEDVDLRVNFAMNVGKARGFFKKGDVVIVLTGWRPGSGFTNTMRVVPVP
row,SMILES,AC50
1,O=S(=O)(Nc1cccc(Cl)c1)c1cncn1-c1cccs1,1000 to 10000 nM
2,O=S(=O)(NCc1cccnc1)c1cccn1-c1ncc(C(F)(F)F)cc1Cl,1000 to 10000 nM
3,Cc1cccc(NS(=O)(=O)c2cncn2-c2cnccn2)c1,100 to 500 nM
4,Cc1cc(C)cc(NS(=O)(=O)c2cncn2-c2ccc(C(F)(F)F)cn2)c1,100 to 500 nM
5,O=S(=O)(Nc1cc(F)cc(F)c1)c1cccn1-c1ncccc1Cl [drawing 63],500 to 1000 nM
6,Cc1cc(NS(=O)(=O)c2ccnn2-c2cccs2)ccc1F,1000 to 10000 nM
7,Cc1cc(NS(=O)(=O)c2ccnn2-c2cnccn2)ccc1F,100 to 500 nM
8,O=S(=O)(Nc1ccc(F)c(Cl)c1)c1cncn1-c1ncccn1 [drawing 117],100 to 500 nM
9,O=S(=O)(Nc1ccc2c(c1)OCO2)c1cncn1-c1ccnc(Cl)n1,500 to 1000 nM
10,O=S(=O)(Nc1ccc2c(c1)OCO2)c1cccn1-c1nccc(Cl)n1,100 to 500 nM
11,O=S(=O)(Nc1cccc(Cl)c1)c1cncn1-c1nccs1,500 to 1000 nM
12,COCCNS(=O)(=O)c1cccn1-c1ncc(C(F)(F)F)cc1Cl,> 10000 nM
13,O=S(=O)(Nc1ccc(F)c(Cl)c1)c1cncn1-c1nccs1,500 to 1000 nM
14,O=S(=O)(Nc1ccc(F)cc1)c1cncn1-c1ncc(C(F)(F)F)cc1Cl,1000 to 10000 nM
15,Cc1cc(NS(=O)(=O)c2cccn2-c2ncccc2Cl)ccc1F [drawing 101],< 100 nM
16,O=S(=O)(Nc1ccc(Cl)cc1)c1cnn(-c2ncc(C(F)(F)F)cc2Cl)c1,100 to 500 nM
17,O=S(=O)(NCc1ccc(Cl)cc1)c1cccn1-c1ncc(C(F)(F)F)cc1Cl,> 10000 nM
18,Cc1cc(NS(=O)(=O)c2cncn2-c2cnccn2)ccc1F,100 to 500 nM
19,O=S(=O)(Nc1ccc(F)cc1)c1cccn1-c1ccc(C(F)(F)F)cn1,1000 to 10000 nM
20,O=S(=O)(Nc1ccc(Cl)cc1)c1cncn1-c1ncccn1,1000 to 10000 nM
21,COc1cc(NS(=O)(=O)c2cncn2-c2ncc(C(F)(F)F)cc2Cl)cc(C(F)(F)F)c1 [drawing 144],500 to 1000 nM
22,O=S(=O)(Nc1cccc(C(F)(F)F)c1)c1cccn1-c1ccnc(Cl)n1,500 to 1000 nM
23,O=S(=O)(Nc1cccc(Cl)c1)c1ccnn1-c1cccs1,> 10000 nM
24,O=S(=O)(Nc1cccc2ncccc12)c1cncn1-c1ncc(C(F)(F)F)cc1Cl,1000 to 10000 nM
25,O=S(=O)(Nc1ccc(F)c(Cl)c1)c1cccn1-c1ncccc1Cl,100 to 500 nM

row,SMILES,AC50
1,O=S(=O)(Nc1ccc(F)cc1)c1cncn1-c1ccc(C(F)(F)F)cn1,1000 to 10000 nM
2,O=S(=O)(Nc1ccc(Cl)cc1)c1cccn1-c1ccnc(Cl)n1,500 to 1000 nM
3,Cc1cc(C)cc(NS(=O)(=O)c2cncn2-c2cnccn2)c1,< 100 nM
4,O=S(=O)(Nc1cc(F)c(F)c(F)c1)c1cccn1-c1ncc(C(F)(F)F)cc1Cl,100 to 500 nM
5,COc1ccc(NS(=O)(=O)c2cccn2-c2ncc(C(F)(F)F)cc2Cl)cc1,100 to 500 nM
6,COc1cc(NS(=O)(=O)c2cccn2-c2ccnc(Cl)n2)cc(C(F)(F)F)c1,500 to 1000 nM
7,O=S(=O)(Nc1cccc2ccccc12)c1cncn1-c1ncc(C(F)(F)F)cc1Cl,100 to 500 nM
8,COc1cc(NS(=O)(=O)c2cccn2-c2ncc(C(F)(F)F)cc2Cl)cc(C(F)(F)F)c1,500 to 1000 nM
9,O=S(=O)(Nc1ccc2c(c1)OCO2)c1cccn1-c1ccnc(Cl)n1,< 100 nM
10,Cc1cc(NS(=O)(=O)c2ccnn2-c2ncc(C(F)(F)F)cc2Cl)ccc1F,< 100 nM
11,COC(=O)c1cccc(NS(=O)(=O)c2cccn2-c2ncc(C(F)(F)F)cc2Cl)c1,1000 to 10000 nM
12,O=S(=O)(Nc1ccc(F)c(Cl)c1)c1cncn1-c1cnccn1,100 to 500 nM
13,O=S(=O)(Nc1ccc(F)cc1)c1cncn1-c1nccc(Cl)n1,1000 to 10000 nM
14,N#Cc1cccc(NS(=O)(=O)c2cccn2-c2ncc(C(F)(F)F)cc2Cl)c1,100 to 500 nM
15,O=S(=O)(Nc1cc(F)c(F)c(F)c1)c1cccn1-c1ccnc(Cl)n1,1000 to 10000 nM
16,O=S(=O)(Nc1cccc(Cl)c1)c1ccnn1-c1ncc(C(F)(F)F)cc1Cl,100 to 500 nM
17,O=S(=O)(Nc1ccc(F)c(Cl)c1)c1ccnn1-c1cccs1,> 10000 nM
18,O=S(=O)(Nc1cccc(-c2ccc(C(F)(F)F)cn2)c1)c1cccn1-c1ncc(C(F)(F)F)cc1Cl,1000 to 10000 nM
19,O=S(=O)(Nc1ccc(F)cc1)c1cncn1-c1ccnc(Cl)n1,1000 to 10000 nM
20,O=S(=O)(Nc1ccc(Cl)cc1)c1cccn1-c1ncccc1Cl [drawing 154],100 to 500 nM
21,Cc1cc(NS(=O)(=O)c2cccn2-c2ccnc(Cl)n2)ccc1F,< 100 nM
22,O=S(=O)(Nc1cc(F)cc(F)c1)c1cncn1-c1ncc(C(F)(F)F)cc1Cl,500 to 1000 nM
23,COc1ccc(NS(=O)(=O)c2cncn2-c2ccc(C(F)(F)F)cn2)cc1,1000 to 10000 nM
24,O=S(=O)(Nc1ccc(Cl)cc1)c1cccn1-c1ncccn1,1000 to 10000 nM
25,COc1ccc(NS(=O)(=O)c2cnn(-c3ccc(C(F)(F)F)cn3)c2)cc1,> 10000 nM

row,SMILES,AC50
1,O=S(=O)(Nc1ccc(Cl)cc1)c1cncn1-c1ccnc(Cl)n1,1000 to 10000 nM
2,O=S(=O)(Nc1ccc(Cl)cc1)c1cccn1-c1nccc(Cl)n1,500 to 1000 nM
3,O=S(=O)(Nc1ccccc1C(F)(F)F)c1cccn1-c1ncc(C(F)(F)F)cc1Cl,1000 to 10000 nM
4,Cc1cc(NS(=O)(=O)c2cncn2-c2ncccn2)ccc1F [drawing 132],< 100 nM
5,CCc1cccc(NS(=O)(=O)c2cncn2-c2ncc(C(F)(F)F)cc2Cl)c1,100 to 500 nM
6,COc1cc(NS(=O)(=O)c2cccn2-c2ncc(C(F)(F)F)cc2Cl)cc(OC)c1,100 to 500 nM
7,O=S(=O)(Nc1cccc(C(F)(F)F)c1)c1cccn1-c1ncc(C(F)(F)F)cc1Cl,100 to 500 nM
8,O=S(=O)(Nc1ccc(F)c(Cl)c1)c1cncn1-c1nccc(Cl)n1,1000 to 10000 nM
9,Cc1cc(C)cc(S(=O)(=O)Nc2ccnn2-c2ncc(C(F)(F)F)cc2Cl)c1,> 10000 nM
10,O=S(=O)(Nc1cccc(Cl)c1)c1ccnn1-c1nccs1,1000 to 10000 nM
11,CN(C)S(=O)(=O)c1cccn1-c1ncc(C(F)(F)F)cc1Cl,> 10000 nM
12,O=S(=O)(Nc1cc(Cl)cc(Cl)c1)c1cncn1-c1ncc(C(F)(F)F)cc1Cl,1000 to 10000 nM
13,O=S(=O)(Nc1ccc(F)cc1)c1cncn1-c1ncccn1,1000 to 10000 nM
14,COc1cc(NS(=O)(=O)c2cncn2-c2ncc(C(F)(F)F)cc2Cl)cc(C(F)(F)F)c1 [drawing 122],1000 to 10000 nM
15,O=S(=O)(Nc1cc(Cl)cc(Cl)c1)c1cccn1-c1ncc(C(F)(F)F)cc1Cl,1000 to 10000 nM
16,O=S(=O)(Nc1cc(F)c(F)c(F)c1)c1cncn1-c1ncc(C(F)(F)F)cc1Cl,1000 to 10000 nM
17,O=S(=O)(Nc1cc(F)cc(F)c1)c1cccn1-c1ccnc(Cl)n1,500 to 1000 nM
18,O=S(=O)(Nc1cccc(C(F)(F)F)c1)c1cncn1-c1ncc(C(F)(F)F)cc1Cl,1000 to 10000 nM
19,O=S(=O)(Nc1ccc(F)c(Cl)c1)c1cncn1-c1ccnc(Cl)n1,100 to 500 nM
20,O=S(=O)(Nc1cc(C(F)(F)F)cc(C(F)(F)F)c1)c1cncn1-c1ncc(C(F)(F)F)cc1Cl,> 10000 nM
21,COc1cc(NS(=O)(=O)c2cncn2-c2ncc(C(F)(F)F)cc2Cl)cc(C(F)(F)F)c1 [drawing 149],1000 to 10000 nM
22,O=S(=O)(Nc1ccc(Cl)cc1)c1cnn(-c2ccc(C(F)(F)F)cn2)c1,1000 to 10000 nM
23,O=S(=O)(Nc1ccc2c(c1)OCO2)c1cncn1-c1cnccn1,100 to 500 nM
24,O=S(=O)(Oc1ccc(Cl)cc1)c1cccn1-c1ncc(C(F)(F)F)cc1Cl,500 to 1000 nM
25,CCCNS(=O)(=O)c1cccn1-c1ncc(C(F)(F)F)cc1Cl,1000 to 10000 nM

row,SMILES,AC50
1,O=S(=O)(Nc1ccc(F)c(Cl)c1)c1cccn1-c1nccc(Cl)n1,100 to 500 nM
2,COc1ccc(NS(=O)(=O)c2cncn2-c2ncc(C(F)(F)F)cc2Cl)cc1,1000 to 10000 nM
3,N#Cc1cccc(NS(=O)(=O)c2cncn2-c2ncc(C(F)(F)F)cc2Cl)c1,1000 to 10000 nM
4,O=S(=O)(Nc1ccc2c(c1)OCCO2)c1cncn1-c1ncc(C(F)(F)F)cc1Cl,1000 to 10000 nM
5,O=S(=O)(Nc1ccc(Cl)cc1)c1cncn1-c1nccc(Cl)n1,1000 to 10000 nM
6,Cc1cc(NS(=O)(=O)c2cncn2-c2nccs2)ccc1F,100 to 500 nM
7,O=S(=O)(Nc1cc(F)cc(F)c1)c1cncn1-c1nccc(Cl)n1,1000 to 10000 nM
8,O=S(=O)(Nc1ccc(F)c(Cl)c1)c1ccnn1-c1nccs1,1000 to 10000 nM
9,COc1cc(NS(=O)(=O)c2cncn2-c2ncc(C(F)(F)F)cc2Cl)cc(OC)c1,500 to 1000 nM
10,O=S(=O)(Nc1cc(F)cc(F)c1)c1cccn1-c1ncccc1Cl [drawing 162],< 100 nM
11,Cc1cc(NS(=O)(=O)c2ccnn2-c2nccs2)ccc1F,1000 to 10000 nM
12,O=S(=O)(Nc1ccc2c(c1)OCO2)c1cncn1-c1ncccn1,500 to 1000 nM
13,O=S(=O)(Nc1ccc2ncccc2c1)c1cncn1-c1ncc(C(F)(F)F)cc1Cl,1000 to 10000 nM
14,COc1ccc(NS(=O)(=O)c2cnn(-c3ncc(C(F)(F)F)cc3Cl)c2)cc1,1000 to 10000 nM
15,O=S(=O)(Nc1ccc(F)c(Cl)c1)c1cncn1-c1cccs1,1000 to 10000 nM
16,O=S(=O)(Nc1cc(F)cc(F)c1)c1cncn1-c1ncccn1,1000 to 10000 nM
17,O=S(=O)(Nc1ccc(F)cc1)c1cccn1-c1ncccc1Cl,1000 to 10000 nM
18,Cc1cc(NS(=O)(=O)c2cncn2-c2cccs2)ccc1F,1000 to 10000 nM
19,O=S(=O)(Nc1cc(F)cc(F)c1)c1cncn1-c1ccnc(Cl)n1,> 10000 nM
20,O=S(=O)(Nc1ccc2c(c1)OCCO2)c1cncn1-c1ccc(C(F)(F)F)cn1,> 10000 nM
21,CCc1cccc(NS(=O)(=O)c2cccn2-c2ncc(C(F)(F)F)cc2Cl)c1,500 to 1000 nM
22,O=S(=O)(Nc1ccc(Oc2ccc(C(F)(F)F)cn2)c(Cl)c1)c1cccn1-c1ncc(C(F)(F)F)cc1Cl,1000 to 10000 nM
